Values after ≈ are worked out from the molar mass of the structure shown. Read-outs that look alike come from different tables or passages of the source. Values belong to the compound of their own block, whether it stands above or below them.
Experiments:
[1] = tested on: BAEC endothelial tubular-like structures formation; assay type: cell-based, bovine; conditions: 5 h
Method: (§1) Cellular suspensions of 5 × 10^4 BAE cells in serum-free DMEM were added to a 96-well plate coated with 50 µL of Matrigel (10.5 mg/mL) in the presence of the indicated treatments for 5 h and photographed with a microscope camera Nikon DS-Ri2 coupled to a Nikon Eclipse Ti microscope (Nikon, Tokyo, Japan). Each concentration was tested in duplicate, and staurosporine 2 µM was used as a routine positive assay control. For the disruption assay, tubular-like structures were formed following the same protocol for the control conditions; then, the indicated concentrations of Solo F–OH were added. After a further incubation time of 90 min, cultures were observed and photographed. Combretastatin-4-phosphate (CA4P) was used as positive control of the disruptor antiangiogenic drug.

[2] = tested on: bovine aortic endothelial cells (BAEC); conditions: 72 h of treatment, proliferating conditions; ref [17]; cited from earlier work
Description: Table 1 Summary of the results obtained in the primary in vitro screening assays for the complete series of synthetic solomonamide precursors. BAEC: bovine aortic endothelial cells, MIC: minimum inhibitory concentration. | column: IC50 ^1 (μM) in BAEC [17]

MMP-2 [3] = target: T1, MMP-2 (Bos taurus, UniProt Q9GLE5); assay: In situ inhibition of MMP-2 gelatinase activity (compound in zymography incubation buffer); assay type: biochemical, bovine; conditions: 20 μM in substrate buffer; conditioned media of untreated BAEC
T1 construct: conditioned media and cellular extracts of endothelial (BAEC) and tumor (HT1080) cell lines; endogenous in cells; host or cells: BAEC (bovine aortic endothelial cells)
T1 sequence (Q9GLE5 111-661): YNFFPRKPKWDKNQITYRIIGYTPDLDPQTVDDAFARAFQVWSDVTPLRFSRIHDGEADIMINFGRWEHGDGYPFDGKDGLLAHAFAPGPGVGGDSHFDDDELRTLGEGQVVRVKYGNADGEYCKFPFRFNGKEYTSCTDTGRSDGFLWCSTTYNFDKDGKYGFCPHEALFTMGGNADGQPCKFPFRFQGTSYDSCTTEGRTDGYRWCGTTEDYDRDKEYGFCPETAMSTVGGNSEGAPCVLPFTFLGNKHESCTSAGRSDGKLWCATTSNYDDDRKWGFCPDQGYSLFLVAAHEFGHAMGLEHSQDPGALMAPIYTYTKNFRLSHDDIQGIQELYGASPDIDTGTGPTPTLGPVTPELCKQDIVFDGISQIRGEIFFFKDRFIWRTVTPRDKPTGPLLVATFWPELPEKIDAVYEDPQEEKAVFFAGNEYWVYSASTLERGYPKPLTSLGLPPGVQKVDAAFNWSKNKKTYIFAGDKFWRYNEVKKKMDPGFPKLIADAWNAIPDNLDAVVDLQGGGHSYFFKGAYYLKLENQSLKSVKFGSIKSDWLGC
Method: A variant of this method was used to obtain complementary information about the direct inhibition of the tested compound on MMP-2 gelatinase activity: samples of conditioned media of untreated BAEC were subjected to gelatin zymography and, after electrophoresis, 20 μM of Solo F–OH was added to the substrate buffer. Detection of the degrading bands and quantification were performed as described above.

human recombinant VEGFR2 = human recombinant VEGFR2 (Homo sapiens, UniProt P35968); assay: In vitro measure of VEGFR2 TK activity (luminescent VEGFR2 (KDR) Kinase Assay Kit); conditions: 20 μM, 45 min at 30 °C; mean ± SD of four independent measures
ERK1/2 = assay: Western blot of ERK1/2 phosphorylation in serum-induced BAEC; assay type: cell-based, bovine; conditions: 20 μM, 1 h treatment of starved BAEC, then 10% FBS for 10 min, two independent experiments
Method: (§2) BAE cells were starved in serum-free for 16 h. After one-hour treatment with Solo F-OH at 10 and 20 μM in the same conditions, cells were induced with 10% of FBS for 10 min. Protein lysates were obtained in radioimmunoprecipitation assay buffer (RIPA) (50 mM of Tris, pH 7.4, 150 mM of NaCl, 1% Triton X-100, 0.25% sodium deoxycholate, 1 mM of EDTA) containing phosphatase activity inhibitors (30 mM of sodium fluoride, 1 mM of sodium orthovanadate, 30 mM of β-glycerophosphate) and protease activity inhibitors (Complete mini, Roche, Mannheim, Germany). Protein concentration was determined using the Lowry method. Samples were subjected to SDS-PAGE electrophoresis and transferred to nitrocellulose membranes. […] Following one hour of incubation with horseradish peroxidase-conjugated secondary antibodies (MERK; goat anti-rabbit IgG HRP Linked Whole Antibody #NA934V; goat anti-mouse IgG (whole molecule)–Peroxidase antibody #A4416) at room temperature, immunoreactive bands were detected with SuperSignal West Pico Chemiluminescent Substrate (Pierce, Rockford, USA) and quantified by ImageJ software. The phosphorylated/total protein ratios were expressed as the percentage of the ratio in serum-stimulated samples in the absence of Solo F–OH.

[4] = tested on: subintestinal vessels (SIVs) of zebrafish embryos; assay: FGF-2 induced angiogenesis zebrafish yolk membrane (ZFYM) assay; assay type: in vivo, zebrafish (Danio rerio); conditions: FGF-2 2 ng, 24 h
MMP-2 [5] = assay: Gelatin zymography of conditioned media and cell extracts of treated BAEC; assay type: cell-based, bovine; conditions: 20 μM, 24 h
Method: (§3) Zymographies for matrix metalloproteinases MMP-2 and MMP-9 activities were performed in both conditioned media and cellular extracts of endothelial (BAEC) and tumor (HT1080) cell lines as described in Fajardo et al.. Briefly, cells seeded in six-well plates were incubated in serum-free culture medium with 0.1% BSA containing 200 KIU of aprotinin/mL and the correspondent treatment. After 24 h of incubation, conditioned media were collected, and cell lysates were obtained. Duplicates were used to determine the cell number, and samples were normalized for equal loading. In order to detect the gelatinolytic activity of MMP-9 and MMP-2, samples were loaded in non-reducing SDS/PAGE gels containing gelatin (1 mg/mL). After electrophoresis, gels were incubated overnight at 37 °C in a substrate buffer (50 mM of Tris/HCl, pH 7.4, supplemented with 1% Triton X-100, 5 mM CaCl2, and 0.02% Na3N) and stained with Coomassie blue R-250. The bands of gelatinase activity could be detected as non-stained bands in a dark, stained background. The size and intensity of the bands were quantified using Image J software.

MMP-9 = assay: Gelatin zymography of conditioned media and cell extracts of treated HT1080; assay type: cell-based, human; conditions: treated HT1080, 24 h
Method: as §3

MMP-2 [6] = assay: as above; assay type: cell-based, human; conditions: treated HT1080, 24 h
Method: as §3

CAM of chicken embryos = conditions: 48 h; for Positive/Total: methylcellulose disc
Method: Fertilized chick eggs were incubated horizontally at 38 °C in a humidified incubator, windowed by day 3 of incubation, and processed by day 8. […] Then, methylcellulose discs were implanted onto the CAM, and the eggs were sealed with adhesive tape and returned to the incubator for 48 h. Negative controls were always made with DMSO mixed with the methylcellulose, and aeroplysinin-1 (3 nmol/CAM) was used as a routine positive control of antiangiogenic compound [47]. After the incubation, the CAM was examined under a stereomicroscope and photographed with a Nikon DS-Ri2 camera. The results were analyzed by two different observers, and the assay was scored positive when both of them reported a significant reduction of vessels in the treated area.

BAEC invasion = assay: Cell invasion assay on Matrigel-coated transwells; assay type: cell-based, bovine; conditions: 20% FBS in lower chamber, 16 h, read-out: Concentration reaching 50% of inhibition of BAEC invasion
Method: The invasion of endothelial cells was assayed by using 8.0-μm pore size transwell inserts coated with 100 µL of Matrigel 0.12 mg/mL solution. 10^5 BAE cells, in the absence or presence of the indicated concentrations of Solo F–OH, were added to the upper chamber of the transwells in the absence of serum, and the lower chamber was filled with 20% FBS DMEM. After 16 h of incubation, invading cells were fixed in 4% paraformaldehyde and stained with a 1% crystal violet solution in 2% ethanol. Cells were photographed with a microscope camera Nikon DS-Ri2 coupled to a Nikon Eclipse Ti microscope (Nikon, Tokyo, Japan).

[7] = tested on: already formed BAEC tubular-like structures; assay: Vascular disruption assay in vitro (already formed tubular-like structures on Matrigel); assay type: cell-based, bovine; conditions: 90 min; even at a concentration 10-fold higher than the MIC of the tube formation assay
Method: as §1

Akt = assay: Western blot of Akt phosphorylation in serum-induced BAEC; assay type: cell-based, bovine; conditions: 20 μM, 1 h treatment of starved BAEC, then 10% FBS for 10 min, two independent experiments
Method: as §2

human recombinant VEGFR2, sequence (P35968 20-1356): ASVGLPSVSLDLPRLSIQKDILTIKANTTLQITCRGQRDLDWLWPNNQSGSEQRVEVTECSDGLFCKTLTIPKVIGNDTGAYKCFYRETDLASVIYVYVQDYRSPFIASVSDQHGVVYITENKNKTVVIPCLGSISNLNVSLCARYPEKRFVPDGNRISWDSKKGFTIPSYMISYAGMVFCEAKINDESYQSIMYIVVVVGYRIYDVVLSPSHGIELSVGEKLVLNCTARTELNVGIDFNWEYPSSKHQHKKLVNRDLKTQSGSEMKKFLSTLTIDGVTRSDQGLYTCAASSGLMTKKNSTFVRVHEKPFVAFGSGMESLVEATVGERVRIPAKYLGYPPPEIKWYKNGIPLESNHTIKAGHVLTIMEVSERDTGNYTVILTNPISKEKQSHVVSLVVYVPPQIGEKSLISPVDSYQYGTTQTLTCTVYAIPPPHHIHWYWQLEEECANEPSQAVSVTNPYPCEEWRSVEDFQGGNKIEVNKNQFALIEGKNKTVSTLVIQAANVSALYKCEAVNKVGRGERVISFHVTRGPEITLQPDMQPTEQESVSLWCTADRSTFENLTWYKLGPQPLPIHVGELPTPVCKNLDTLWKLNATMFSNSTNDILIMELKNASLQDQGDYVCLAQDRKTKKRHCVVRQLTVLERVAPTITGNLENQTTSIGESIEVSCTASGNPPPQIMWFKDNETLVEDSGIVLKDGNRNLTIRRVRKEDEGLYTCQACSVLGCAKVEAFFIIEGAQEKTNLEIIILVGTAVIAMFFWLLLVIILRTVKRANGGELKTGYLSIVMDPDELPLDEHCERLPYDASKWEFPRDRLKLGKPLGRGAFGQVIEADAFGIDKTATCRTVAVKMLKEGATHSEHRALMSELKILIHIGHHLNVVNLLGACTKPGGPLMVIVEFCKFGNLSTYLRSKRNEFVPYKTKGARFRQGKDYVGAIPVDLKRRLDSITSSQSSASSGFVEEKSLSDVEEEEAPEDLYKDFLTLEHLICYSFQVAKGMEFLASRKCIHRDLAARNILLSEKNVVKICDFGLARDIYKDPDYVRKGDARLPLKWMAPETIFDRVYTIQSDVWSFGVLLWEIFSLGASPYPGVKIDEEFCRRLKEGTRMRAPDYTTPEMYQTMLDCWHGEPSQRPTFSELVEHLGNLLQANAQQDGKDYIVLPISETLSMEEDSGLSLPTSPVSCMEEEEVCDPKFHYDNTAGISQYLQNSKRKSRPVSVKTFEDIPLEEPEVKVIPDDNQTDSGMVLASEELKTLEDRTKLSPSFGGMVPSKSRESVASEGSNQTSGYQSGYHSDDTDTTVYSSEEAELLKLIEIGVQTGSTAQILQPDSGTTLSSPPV

Compound: C[C@H]1NC(=O)CNC(=O)CCC/C=C/c2ccc(OCc3ccccc3)cc2NC1=O [Solo-4]
- MIC Tubular Like-Structures Formation [1]: 50 µM (≈ 21.1 µg/mL)
- IC50 [2]: 69.6 ± 12.5 µM

Compound: C[C@H]1NC(=O)CNC(=O)CC/C=C/Cc2ccccc2NC1=O [Solo-1]
- MIC Tubular Like-Structures Formation [1]: >50 µM
- IC50 [2]: > 100 µM

Compound: C[C@H]1NC(=O)CNC(=O)CC/C=C/Cc2ccc(OCc3ccccc3)cc2NC1=O [Solo-2]
- MIC Tubular Like-Structures Formation [1]: >50 µM
- IC50 [2]: 43.8 ± 1.2 µM

Compound: C[C@@H]1C(=O)NCC(=O)N[C@H](C)C(=O)Nc2cc(OCc3ccccc3)ccc2/C=C/C[C@@H]1O [Solo F–OH]
- MMP-2 degradation bands with compound in incubation buffer (MMP-2 [3]): unaffected
- Remaining VEGFR2 kinase activity relative to vehicle control (DMSO) (human recombinant VEGFR2): 84.5 ± 3.3%
- Phosphorylation of ERK1/2 in the presence of serum (ERK1/2): substantially reduced
- MIC Tubular Like-Structures Formation [1]: 1 µM (≈ 0.452 µg/mL)
- Score + / Total (mild response), % ([4]; compound 5 µM): 36.8%
- Score + / Total (mild response), embryos ([4]; compound 5 µM): 7/19
- Score ++ / Total (strong response), % ([4]; compound 5 µM): 15.8%
- Score ++ / Total (strong response), embryos ([4]; compound 5 µM): 3/19
- Score – / Total (no response to FGF-2), % ([4]; compound 5 µM): 47.4%
- Score – / Total (no response to FGF-2), embryos ([4]; compound 5 µM): 9/19
- Score + / Total (mild response), % ([4]; compound 10 µM): 39.1%
- Score + / Total (mild response), embryos ([4]; compound 10 µM): 9/23
- Score ++ / Total (strong response), % ([4]; compound 10 µM): 4.3%
- Score ++ / Total (strong response), embryos ([4]; compound 10 µM): 1/23
- Score – / Total (no response to FGF-2), % ([4]; compound 10 µM): 56.5%
- Score – / Total (no response to FGF-2), embryos ([4]; compound 10 µM): 13/23
- Presence of MMP-2 in cell extracts and conditioned media of BAEC (MMP-2 [5]): reduced
- IC50 [2]: 18.1 ± 2.2 µM
- MMP-9 activity in HT1080 cells (MMP-9): decreased
- MMP-2 activity in HT1080 cells (MMP-2 [6]): decreased
- Positive/Total (CAM of chicken embryos; 0.1 nmol/CAM): 1/7
- Positive/Total (CAM of chicken embryos; 0.5 nmol/CAM): 2/7
- Positive/Total (CAM of chicken embryos; 1 nmol/CAM): 6/9
- Positive/Total (CAM of chicken embryos; 5 nmol/CAM): 9/12
- Positive/Total (CAM of chicken embryos; 10 nmol/CAM): 10/10
- Dose reaching 50% of inhibition of CAM neovascularization (CAM of chicken embryos; CAM assay): lower than 1 nmol/CAM
- IC50 (BAEC invasion): ~5 µM
- Disruption of endothelial tubular-like structures already formed on Matrigel [7]: not able to disrupt
- Phosphorylation of Akt in the presence of serum (Akt): substantially reduced

Further lines, with some results ahead:

- MIC Tubular Like-Structures Formation [1]: >50 µM
Compound: C[C@H]1NC(=O)CNC(=O)CC/C=C/Cc2ccc(O)cc2NC1=O [Solo-5]
- IC50 [2]: > 100 µM

- MIC Tubular Like-Structures Formation [1]: >50 µM
Compound: C[C@H]1NC(=O)CNC(=O)CC/C=C/C(O)c2ccccc2NC1=O (stereo partly drawn) [Solo-6]
- IC50 [2]: > 100 µM

— publication PMC6520732, “Exploring the Antiangiogenic Potential of Solomonamide A Bioactive Precursors: In Vitro and In Vivo Evidences of the Inhibitory Activity of Solo F-OH During Angiogenesis” (Marine Drugs, 2019)
